Experiments:
Type in all cases: in vitro ADME, Alopecurus myosuroides
AmCYP03b (Seq ID 6) = test: Herbicide degradation in transgenic yeast cells expressing cytochrome P450 AmCYP03b; conditions: transgenic yeast cells (S. cerevisiae BJ5459) expressing AmCYP03b, recovery of herbicide in reference to control, UPLC-MS/MS
From the text: (§1) The cDNA of CYP450 monooxygenase genes were synthesized with an optimized codon usage for yeast, cloned via uniqueBamHI-SalI restriction sites in the low copy pESC-ura expression vector (Agilent Technologies). Constructs were transformed into S. cerevisiae wild type strain BJ5459 (MATa ura3-5 trp lys2-801 leu2Δ1 his3Δ200 pep4Δ::HIS3 prb1Δ1.6R can1 GAL cir^+; ATCC 208284) using a Yeast Maker Transformation System from Clontech and verified by colony PCR. Positive clones were selected on minimal synthetic-defined media (SD) supplemented with appropriate dropout solution. The strain had no obvious phenotypes. Cells were induced in SG-Ura medium (same composition as SD but with galactose instead of glucose) for 24 h (Pompon et al., Methods in Enzymology 272:51-64 (1996); Urban et al., Eur. J. Biochem. 222:[…] (1994)). Optimal heterologous protein expression was assayed using Western Blot analysis.
(§2) 96 deep well growth plates (STARLAB GmbH) charged with 700 μL SDA medium are inoculated with the respective yeast strains from cryostock and incubated at 30° C., 400 rpm. After 48 h, an aliquot is transferred into a new plate with fresh SDA medium 400 rpm. After 4 h the cultures are spun down, the supernatant discarded and the pellets resuspended in 700 μL pre-warmed SGA media to induce protein expression at 30° C. and 400 rpm. After an incubation time of 24 h, 7 μL herbicide solution (500 μM DMSO stock solution) or solvent control is added to the yeast culture incubated for additional 24 h. The herbicide conversion is stopped by adding 700 μL acetonitrile followed by ultrasonification. The homogenate is prepared for UPLC-MS/MS analysis. The degradation rate was calculated by the determination of the recovery of the herbicide in reference to the control.

AmCYP04 (Seq ID 27) = test: Herbicide degradation in transgenic yeast cells expressing cytochrome P450 AmCYP04; conditions: transgenic yeast cells (S. cerevisiae BJ5459) expressing AmCYP04, Seq ID 27, recovery of herbicide in reference to control, UPLC-MS/MS
From the text: as §1, §2

AmCYP03_1 (Seq ID 4) = test: Herbicide degradation in transgenic yeast cells expressing cytochrome P450 AmCYP03_1; conditions: transgenic yeast cells (S. cerevisiae BJ5459) expressing AmCYP03_1, Seq ID 4, recovery of herbicide in reference to control, UPLC-MS/MS
From the text: as §1, §2

AmCYP01 (Seq ID 2) = test: Herbicide degradation in transgenic yeast cells expressing cytochrome P450 AmCYP01; conditions: transgenic yeast cells (S. cerevisiae BJ5459) expressing AmCYP01, Seq ID 2, recovery of herbicide in reference to control, UPLC-MS/MS
From the text: as §1, §2

AmCYP12_1 (Seq ID 45) = test: Herbicide degradation in transgenic yeast cells expressing cytochrome P450 AmCYP12_1; conditions: transgenic yeast cells (S. cerevisiae BJ5459) expressing AmCYP12_1, Seq ID 45, recovery of herbicide in reference to control, UPLC-MS/MS
From the text: as §1, §2

| SMILES | Degradation rate of listed herbicidal compounds within 24 h (AmCYP03b (Seq ID 6)) | Degradation rate of listed herbicidal compounds within 24 h (AmCYP04 (Seq ID 27)) | Degradation rate of listed herbicidal compounds within 24 h (AmCYP03_1 (Seq ID 4)) | Degradation rate of listed herbicidal compounds within 24 h (AmCYP01 (Seq ID 2)) | Degradation rate of listed herbicidal compounds within 24 h (AmCYP12_1 (Seq ID 45)) |
| --- | --- | --- | --- | --- | --- |
| O=S1(=O)C(c2c(Cl)cc(Cl)nc2Cl)=C(O)c2ncccc2N1CC(F)F [Coumarone-derivative 1, 1-(2,2-difluoroethyl)-2,2-dioxo-3-(2,4,6-trichloro-3-pyridyl)pyrido[3,2-c]thiazin-4-ol] | 18 | 31 | 25 | 0 | 10 |
| N#Cc1ccc(C2=C(O)c3ncccc3N(CC(F)F)S2(=O)=O)c(C(F)(F)F)c1 [Coumarone-derivative 2, 4-[1-(2,2-difluoroethyl)-4-hydroxy-2,2-dioxo-pyrido[3,2-c]thiazin-3-yl]-3-(trifluoromethyl)benzonitrile] | 7 | 0 | 16 | 0 | 24 |
| O=S1(=O)Cc2cccnc2C(O)=C1c1ccccc1C(F)(F)F [Coumarone-derivative 3, 6,6-dioxo-7-[2-(trifluoromethyl)phenyl]-5H-thiopyrano[4,3-b]pyridin-8-ol] | 0 | 9 | 0 | 0 | 27 |
| O=S1(=O)Oc2cccnc2C(O)=C1c1c(Cl)cccc1C(F)(F)F [Coumarone-derivative 4, 3-[2-chloro-6-(trifluoromethyl)phenyl]-2,2-dioxo-oxathiino[5,6-b]pyridin-4-ol] | 7 | 12 | 4 | 0 | 4 |
| CC1(C)c2cccnc2C(O)=C(c2ccc(Cl)nc2Cl)S1(=O)=O [Coumarone-derivative 5, 7-(2,6-dichloro-3-pyridyl)-5,5-dimethyl-6,6-dioxo-thiopyrano[4,3-b]pyridin-8-ol] | 17 | 22 | 2 | 14 | 15 |
| CC1=NOC(c2c(Cl)ccc(C3=C(O)c4ncccc4C(C)(C)S3(=O)=O)c2Cl)C1 (stereo not drawn) [Coumarone-derivative 6, 7-[2,4-dichloro-3-(3-methyl-4,5-dihydroisoxazol-5-yl)phenyl]-5,5-dimethyl-6,6-dioxo-thiopyrano[4,3-b]pyridin-8-ol] | 0 | 0 | 2 | 1 | 4 |
| COCCOCc1c(Cl)ccc(C2=C(O)c3ncccc3C(C)(C)S2(=O)=O)c1Cl [Coumarone-derivative 7, 7-[2,4-dichloro-3-(2-methoxyethoxymethyl)phenyl]-5,5-dimethyl-6,6-dioxo-thiopyrano[4,3-b]pyridin-8-ol] | 6 | 7 | 14 | 0 | 5 |
| COc1ccc(C2=C(O)c3ncccc3C(C)(C)S2(=O)=O)c(C(F)(F)F)n1 [Coumarone-derivative 8, 7-[6-methoxy-2-(trifluoromethyl)-3-pyridyl]-5,5-dimethyl-6,6-dioxo-thiopyrano[4,3-b]pyridin-8-ol] | 0 | 0 | 10 | 0 | 3 |
| O=S1(=O)C(c2c(Cl)cc(Cl)nc2Cl)=C(O)c2ncccc2N1CC(F)F [Coumarone-derivative 9, 1-(2,2-difluoroethyl)-2,2-dioxo-3-(2,4,6-trichloro-3-pyridyl)pyrido[3,2-c]thiazin-4-ol] | 5 | 18 | 12 | 0 | 0 |
| CN(c1c(Cl)ccc(C2=C(O)c3ncccc3C(C)(C)S2(=O)=O)c1Cl)S(C)(=O)=O [Coumarone-derivative 10, N-[2,6-dichloro-3-(8-hydroxy-5,5-dimethyl-6,6-dioxo-thiopyrano[4,3-b]pyridin-7-yl)phenyl]-N-methyl-methanesulfonamide] | 9 | 19 | 15 | 0 | 0 |
| Cc1c(Cl)ccc(Cl)c1C1=C(O)c2ncccc2C(C)(C)S1(=O)=O [Coumarone-derivative 11, 7-(3,6-dichloro-2-methyl-phenyl)-5,5-dimethyl-6,6-dioxo-thiopyrano[4,3-b]pyridin-8-ol] | 18 | 0 | 0 | 0 | 0 |
| CCC(CC)Nc1c([N+](=O)[O-])cc(C)c(C)c1[N+](=O)[O-] [pendimethalin, reference compound] | 24 | 25 | 24 | 13 | 16 |

From US10294488B2, “Herbicide-metabolizing cytochrome P450 monooxygenases” (BASF SE, priority 2012, dated 2019)
